Legend:
Assay type in all cases: in vivo
[1] = test system: Plutella xylostella (Diamond Back Moth); assay: Activity against Plutella xylostella (diamond back moth), artificial diet; settings: 192 h, application rate of 200 ppm, eggs, 8 days after infestation, read-out: effect in at least one of the two categories (mortality or growth inhibition)
Procedure: 24-well microtiter plates with artificial diet were treated with aqueous test solutions prepared from 10′000 ppm DMSO stock solutions by pipetting. After drying, Plutella eggs were pipetted through a plastic stencil onto a gel blotting paper and the plate was closed with it. The samples were assessed for mortality and growth inhibition in comparison to untreated samples 8 days after infestation.

[2] = test system: Chilo suppressalis (Striped Rice Stemborer); assay: Activity against Chilo suppressalis (striped rice stemborer), artificial diet; settings: 144 h, application rate of 200 ppm, L2 larvae, 6 days after infestation, read-out: control (mortality, anti-feeding effect, growth inhibition)
Procedure: 24-well microtiter plates with artificial diet were treated with aqueous test solutions prepared from 10′000 ppm DMSO stock solutions by pipetting. After drying, the plates were infested with L2 larvae (6-8 per well). The samples were assessed for mortality, anti-feeding effect, and growth inhibition in comparison to untreated samples 6 days after infestation. Control of Chilo suppressalis by a test sample is given when at least one of the categories mortality, anti-feedant effect, and growth inhibition is higher than the untreated sample.

[3] = test system: Carpocapsa (Cydia) Pomonella (Codling Moth); assay: Activity against Carpocapsa (Cydia) pomonella (codling moth), larvicide, feeding/contact; settings: 336 h, application rate of 12.5 ppm, L1 larvae, 14 days after infestation, read-out: effect in at least one of the two categories (mortality or growth inhibition)
Procedure: Diet cubes coated with paraffin were sprayed with diluted test solutions in an application chamber. After drying off the treated cubes (10 replicates) were infested with 1 L1 larvae. Samples were incubated at 26-27° C. and checked 14 days after infestation for mortality and growth inhibition. The following compounds gave an effect of at least 80% in at least one of the two categories (mortality or growth inhibition) at an application rate of 12.5 ppm: P1, P2, P3, P5, P9, P10, P11, P12, P14, P17, P19, P20, P21, P23, P24, P30, P31.

[4] = test system: Myzus persicae (Green Peach Aphid); assay: Activity against Myzus persicae (green peach aphid), systemic activity; settings: 144 h, test rate of 24 ppm, pea seedling roots in test solution, 6 days
Procedure: Roots of pea seedlings infested with an aphid population of mixed ages were placed directly into aqueous test solutions prepared from 10′000 DMSO stock solutions. The samples were assessed for mortality 6 days after placing seedlings into test solutions.

[5] = test system: Myzus persicae (Green Peach Aphid); assay: Activity against Myzus persicae (green peach aphid), feeding/contact activity; settings: 144 h, application rate of 200 ppm, mixed ages, 6 days after infestation
Procedure: Sunflower leaf discs were placed onto agar in a 24-well microtiter plate and sprayed with aqueous test solutions prepared from 10′000 ppm DMSO stock solutions. After drying, the leaf discs were infested with an aphid population of mixed ages. The samples were assessed for mortality 6 days after infestation.

[6] = test system: Diabrotica Balteata (Corn Root Worm); assay: Activity against Diabrotica balteata (corn root worm), maize sprouts sprayed; settings: 96 h, application rate of 200 ppm, L2 larvae, 4 days after infestation, read-out: effect in at least one of the two categories (mortality or growth inhibition)
Procedure: Maize sprouts placed onto an agar layer in 24-well microtiter plates were treated with aqueous test solutions prepared from 10′000 ppm DMSO stock solutions by spraying. After drying, the plates were infested with L2 larvae (6 to 10 per well). The samples were assessed for mortality and growth inhibition in comparison to untreated samples 4 days after infestation.

[7] = test system: Nilaparvata lugens (Brown Plant Hopper); assay: Activity against Nilaparvata lugens (brown plant hopper), larvicide, systemic into water; settings: 168 h, application rate of 12.5 ppm, N3 nymphs, 7 days after infestation
Procedure: Larvicide, systemic into water Rice plants cultivated in a nutritive solution were treated with the diluted test solutions into nourishing cultivation system. 1 day after application plants were infested with ˜20 N3 nymphs. 7 days after infestation samples were assessed for mortality and growth regulation.

[8] = test system: Euschistus heros (Neotropical Brown Stink Bug); assay: Activity against Euschistus heros (neotropical brown stink bug), soybean leaves sprayed; settings: 120 h, application rate of 200 ppm, N2 nymphs, 5 days after infestation, read-out: effect in at least one of the two categories (mortality or growth inhibition)
Procedure: Soybean leaves on agar in 24-well microtiter plates were sprayed with aqueous test solutions prepared from 10′000 ppm DMSO stock solutions. After drying the leaves were infested with N2 nymphs. The samples were assessed for mortality and growth inhibition in comparison to untreated samples 5 days after infestation.

[9] = test system: Spodoptera littoralis (Egyptian Cotton Leaf Worm); assay: Activity against Spodoptera littoralis (Egyptian cotton leaf worm), cotton leaf discs sprayed; settings: foliar, 72 h, application rate of 200 ppm, L1 larvae, 3 days after infestation, read-out: control (mortality, anti-feeding effect, growth inhibition)
Procedure: Cotton leaf discs were placed onto agar in 24-well microtiter plates and sprayed with aqueous test solutions prepared from 10′000 ppm DMSO stock solutions. After drying the leaf discs were infested with five L1 larvae. The samples were assessed for mortality, anti-feeding effect, and growth inhibition in comparison to untreated samples 3 days after infestation. Control of Spodoptera littoralis by a test sample is given when at least one of the categories mortality, anti-feedant effect, and growth inhibition is higher than the untreated sample.

[10] = test system: Bemisia tabaci (Cotton White Fly); assay: Activity against Bemisia tabaci (cotton white fly), cotton leaf discs sprayed; settings: foliar, 144 h, application rate of 200 ppm, adult white flies, 6 days after incubation
Procedure: Cotton leaf discs were placed on agar in 24-well microtiter plates and sprayed with aqueous test solutions prepared from 10′000 ppm DMSO stock solutions. After drying the leaf discs were infested with adult white flies. The samples were checked for mortality 6 days after incubation.

[11] = test system: Frankliniella occidentalis (Western Flower Thrips); assay: Activity against Frankliniella occidentalis (western flower thrips), sunflower leaf discs sprayed; settings: foliar, 168 h, application rate of 200 ppm, population of mixed ages, 7 days after infestation
Procedure: Sunflower leaf discs were placed on agar in 24-well microtiter plates and sprayed with aqueous test solutions prepared from […] stock solutions. After drying the leaf discs were infested with a Frankliniella population of mixed ages. The samples were assessed for mortality 7 days after infestation.

[12] = test system: Tetranychus urticae (Two-Spotted Spider Mite); assay: Activity against Tetranychus urticae (two-spotted spider mite), bean leaf discs sprayed; settings: foliar, 192 h
Procedure: Bean leaf discs on agar in 24-well microtiter plates were sprayed with aqueous test solutions prepared from 10′000 ppm DMSO stock solutions. After drying the leaf discs were infested with a mite population of mixed ages. The samples were assessed for mortality on mixed population (mobile stages) 8 days after infestation.

CCS(=O)(=O)c1cccnc1-c1cc2c(cn1)N(CC(F)(F)C(F)(F)F)C(=O)CC2 [P1, 6-(3-ethylsulfonyl-2-pyridyl)-1-(2,2,3,3,3-pentafluoropropyl)-3,4-dihydro-1,7-naphthyridin-2-one]
≥ 80%: percent effect (mortality or growth inhibition) at 200 ppm [1] | mortality at 200 ppm [2] | percent effect (mortality or growth inhibition) at 12.5 ppm [3] | mortality at 24 ppm [4] | mortality at 200 ppm [5] | percent effect (mortality or growth inhibition) at 200 ppm [6] | mortality at 12.5 ppm [7] | percent effect (mortality or growth inhibition) at 200 ppm [8] | mortality at 200 ppm [9]

CCS(=O)(=O)c1cc(C2(C#N)CC2)cnc1-c1cc2c(cn1)N(CC(F)(F)F)C(=O)CC2 [P2, 1-[5-ethylsulfonyl-6-[2-oxo-1-(2,2,2-trifluoroethyl)-3,4-dihydro-1,7-naphthyridin-6-yl]-3-pyridyl]cyclopropanecarbonitrile]
≥ 80%: percent effect (mortality or growth inhibition) at 200 ppm [1] | mortality at 200 ppm [2] | percent effect (mortality or growth inhibition) at 12.5 ppm [3] | mortality at 24 ppm [4] | mortality at 200 ppm [5] | mortality at 200 ppm [10] | percent effect (mortality or growth inhibition) at 200 ppm [6] | mortality at 12.5 ppm [7] | percent effect (mortality or growth inhibition) at 200 ppm [8] | mortality at 200 ppm [9]

CCS(=O)(=O)c1cc(C2(C#N)CC2)cnc1-c1cc2c(cn1)N(CC(F)(F)C(F)(F)F)C(=O)OC2 [P3, 1-[5-ethylsulfonyl-6-[2-oxo-1-(2,2,3,3,3-pentafluoropropyl)-4H-pyrido[3,4-d][1,3]oxazin-6-yl]-3-pyridyl]cyclopropanecarbonitrile]
≥ 80%: percent effect (mortality or growth inhibition) at 200 ppm [1] | mortality at 200 ppm [2] | percent effect (mortality or growth inhibition) at 12.5 ppm [3] | mortality at 200 ppm [5] | mortality at 200 ppm [10] | percent effect (mortality or growth inhibition) at 200 ppm [6] | mortality at 12.5 ppm [7] | percent effect (mortality or growth inhibition) at 200 ppm [8] | mortality at 200 ppm [9]

CCSc1cc(C2(C#N)CC2)cnc1-c1cc2c(cn1)N(CC(F)(F)C(F)(F)F)C(=O)OC2 [P4, 1-[5-ethylsulfanyl-6-[2-oxo-1-(2,2,3,3,3-pentafluoropropyl)-4H-pyrido[3,4-d][1,3]oxazin-6-yl]-3-pyridyl]cyclopropanecarbonitrile]
≥ 80%: percent effect (mortality or growth inhibition) at 200 ppm [1] | mortality at 200 ppm [2] | mortality at 200 ppm [5] | mortality at 200 ppm [11] | percent effect (mortality or growth inhibition) at 200 ppm [6] | percent effect (mortality or growth inhibition) at 200 ppm [8] | mortality at 200 ppm [9]

CCS(=O)(=O)c1cc(C(C)(C)C#N)cnc1-c1cc2c(cn1)N(CC(F)(F)C(F)(F)F)C(=O)CC2 [P11, 2-[5-ethylsulfonyl-6-[2-oxo-1-(2,2,3,3,3-pentafluoropropyl)-3,4-dihydro-1,7-naphthyridin-6-yl]-3-pyridyl]-2-methyl-propanenitrile]
≥ 80%: percent effect (mortality or growth inhibition) at 200 ppm [1] | mortality at 200 ppm [2] | percent effect (mortality or growth inhibition) at 12.5 ppm [3] | mortality at 24 ppm [4] | mortality at 200 ppm [5] | mortality at 200 ppm [10] | percent effect (mortality or growth inhibition) at 200 ppm [6] | mortality at 12.5 ppm [7] | percent effect (mortality or growth inhibition) at 200 ppm [8] | mortality at 200 ppm [9]

CCS(=O)(=O)c1cc(C2(C#N)CC2)cnc1-c1cc2c(cn1)N(CC(F)(F)C(F)(F)F)C(=O)CC2 [P12, 1-[5-ethylsulfonyl-6-[2-oxo-1-(2,2,3,3,3-pentafluoropropyl)-3,4-dihydro-1,7-naphthyridin-6-yl]-3-pyridyl]cyclopropanecarbonitrile]
≥ 80%: percent effect (mortality or growth inhibition) at 200 ppm [1] | mortality at 200 ppm [2] | percent effect (mortality or growth inhibition) at 12.5 ppm [3] | mortality at 24 ppm [4] | mortality at 200 ppm [5] | mortality at 200 ppm [10] | percent effect (mortality or growth inhibition) at 200 ppm [6] | mortality at 12.5 ppm [7] | percent effect (mortality or growth inhibition) at 200 ppm [8] | mortality at 200 ppm [9]

CCS(=O)(=O)c1cc(C(C)(C)F)cnc1-c1cc2c(cn1)N(CC(F)(F)C(F)(F)F)C(=O)CC2 [P23, 6-[3-ethylsulfonyl-5-(1-fluoro-1-methyl-ethyl)-2-pyridyl]-1-(2,2,3,3,3-pentafluoropropyl)-3,4-dihydro-1,7-naphthyridin-2-one]
≥ 80%: mortality at 200 ppm [12] | percent effect (mortality or growth inhibition) at 200 ppm [1] | mortality at 200 ppm [2] | percent effect (mortality or growth inhibition) at 12.5 ppm [3] | percent effect (mortality or growth inhibition) at 200 ppm [6] | mortality at 12.5 ppm [7] | percent effect (mortality or growth inhibition) at 200 ppm [8] | mortality at 200 ppm [9]
